Test results from PMC5761851, “Application of a phenotypic drug discovery strategy to identify biological and chemical starting points for inhibition of TSLP production in lung epithelial cells” (PLoS ONE, 2018).
Where “and” joins values, the source holds several entries; their conditions need not be identical. Identical values can stand only once.

Tests used:
[1] = tested on: TSLP mRNA levels in NHBE cells; experiment: TSLP mRNA real-time PCR (qPCR) in NHBE cells; type: cell-based, human; parameters: TSLP mRNA upregulation (% versus control) / % Inhibition of mRNA: dose or concentration left out as unconfirmed; conditions: for % Inhibition of mRNA at [4 μM] ± SD: NHBE donor #1, 6 h stimulation; for % Inhibition of mRNA: individual values, donor #1
[2] = tested on: 125 representative kinases; experiment: 125 kinase selectivity panel (overall); type: biochemical; conditions: 10 μM
Description: Kinase selectivity was evaluated at Eurofins Pharma Discovery Services using a selection of 125 representative kinases tested at a concentration of 10 μM in duplicate (S3 Table). IC50 values for selected activities were further characterized at 9 duplicate concentrations. DNA-PK activity was determined at the SelectScreen® Biochemical kinase Profiling Service of Thermo Fisher Scientific.

[3] = tested on: 104 binding assays and 41 cell based and enzyme assays; experiment: BioPrint general selectivity panel; conditions: 1 μM
Description: General selectivity profiling was performed at Eurofins Pharma Discovery Services using the BioPrint® panel and reference database. The panel included 104 binding assays (non-peptide, peptide and nuclear receptors, ion channels and amine transporters) and 41 cell based and enzyme assays (including 10 kinases, 9 proteases and 5 phosphodiesterases) (S4 Table). More than 70% were human targets. Compound 4 was tested at a concentration of 1 μM in duplicate (10 μM for P-gp and CYP enzymes). The resulting bioactivity fingerprint was compared with a database of >2,500 BioPrint marketed drugs and reference compounds. IC50 values for selected activities were further characterized at 8 concentrations in duplicate.

[4] = target: T1, A3 (Homo sapiens, UniProt P0DMS8); experiment: BioPrint panel: A3 (h) (agonist); type: binding; conditions: 1 micromolar, read-out: percentage of inhibition of activity
T1 construct: purchased Eurofins Pharma Discovery Services (KinaseProfiler; Cerep BioPrint panel)
Description: (§1) Supplement pone.0189247.s004.xlsx, sheet "Bioprint Selectivity Panel" | column: %

[5] = target: T2, alpha 1A (Homo sapiens, UniProt P35348); experiment: BioPrint panel: alpha 1A (h) (antagonist); type: binding; conditions: 1 micromolar, read-out: percentage of inhibition of activity
T2 construct: purchased Eurofins Pharma Discovery Services (KinaseProfiler; Cerep BioPrint panel)
Description: as §1

[6] = target: T3, alpha 1B (Homo sapiens, UniProt P35368); experiment: BioPrint panel: alpha 1B (h) (antagonist); type: binding; conditions: 1 micromolar, read-out: percentage of inhibition of activity
T3 construct: purchased Eurofins Pharma Discovery Services (KinaseProfiler; Cerep BioPrint panel)
Description: as §1

[7] = tested on: BZD (central); experiment: BioPrint panel: BZD (central) (agonist); type: binding; conditions: 1 micromolar
Description: as §1

[8] = target: T4, D2S (Homo sapiens, UniProt P14416); experiment: BioPrint panel: D2S (h) (agonist); type: binding; conditions: 1 micromolar, read-out: percentage of inhibition of activity
T4 construct: purchased Eurofins Pharma Discovery Services (KinaseProfiler; Cerep BioPrint panel)
Description: as §1

[9] = target: T5, GABAA1 (a1, b2, g2) (Homo sapiens, UniProt P14867+P47870); experiment: BioPrint panel: GABAA1 (h) (a1, b2, g2)(agonist); type: binding; conditions: 1 micromolar, read-out: percentage of inhibition of activity
T5 construct: purchased Eurofins Pharma Discovery Services (KinaseProfiler; Cerep BioPrint panel)
Description: as §1

[10] = tested on: kainate; experiment: BioPrint panel: kainate (agonist); type: binding; conditions: 1 micromolar
Description: as §1

[11] = tested on: NMDA; experiment: BioPrint panel: NMDA (antagonist); type: binding; conditions: 1 micromolar
Description: as §1

[12] = target: T6, CCR2 (Homo sapiens, UniProt P41597); experiment: BioPrint panel: CCR2 (h) (agonist); type: binding; conditions: 1 micromolar, read-out: percentage of inhibition of activity
T6 construct: purchased Eurofins Pharma Discovery Services (KinaseProfiler; Cerep BioPrint panel)
Description: as §1

[13] = target: T7, H2 (Homo sapiens, UniProt P25021); experiment: BioPrint panel: H2 (h) (antagonist); type: binding; conditions: 1 micromolar, read-out: percentage of inhibition of activity
T7 construct: purchased Eurofins Pharma Discovery Services (KinaseProfiler; Cerep BioPrint panel)
Description: as §1

[14] = target: T8, MC1 (Mus musculus, UniProt Q01727); experiment: BioPrint panel: MC1 (agonist); type: binding; conditions: 1 micromolar, read-out: percentage of inhibition of activity
T8 construct: purchased Eurofins Pharma Discovery Services (KinaseProfiler; Cerep BioPrint panel)
Description: as §1

[15] = target: T9, MT1 (ML1A) (Homo sapiens, UniProt P48039); experiment: BioPrint panel: MT1 (ML1A) (h) (agonist); type: binding; conditions: 1 micromolar, read-out: percentage of inhibition of activity
T9 construct: purchased Eurofins Pharma Discovery Services (KinaseProfiler; Cerep BioPrint panel)
Description: as §1

[16] = target: T10, MAO-A (Rattus norvegicus, UniProt P21396); experiment: BioPrint panel: MAO-A (antagonist); type: binding; conditions: 1 micromolar, read-out: percentage of inhibition of activity
T10 construct: purchased Eurofins Pharma Discovery Services (KinaseProfiler; Cerep BioPrint panel)
Description: as §1

[17] = target: T11, M2 (Homo sapiens, UniProt P08172); experiment: BioPrint panel: M2 (h) (antagonist); type: binding; conditions: 1 micromolar, read-out: percentage of inhibition of activity
T11 construct: purchased Eurofins Pharma Discovery Services (KinaseProfiler; Cerep BioPrint panel)
Description: as §1

[18] = target: T12, M3 (Homo sapiens, UniProt P20309); experiment: BioPrint panel: M3 (h) (antagonist); type: binding; conditions: 1 micromolar, read-out: percentage of inhibition of activity
T12 construct: purchased Eurofins Pharma Discovery Services (KinaseProfiler; Cerep BioPrint panel)
Description: as §1

[19] = target: T13, NK1 (Homo sapiens, UniProt P25103); experiment: BioPrint panel: NK1 (h) (agonist); type: binding; conditions: 1 micromolar, read-out: percentage of inhibition of activity
T13 construct: purchased Eurofins Pharma Discovery Services (KinaseProfiler; Cerep BioPrint panel)
Description: as §1

[20] = tested on: PCP; experiment: BioPrint panel: PCP (antagonist); type: binding; conditions: 1 micromolar
Description: as §1

[21] = target: T14, 5-HT1A (Homo sapiens, UniProt P08908); experiment: BioPrint panel: 5-HT1A (h) (agonist); type: binding; conditions: 1 micromolar, read-out: percentage of inhibition of activity
T14 construct: purchased Eurofins Pharma Discovery Services (KinaseProfiler; Cerep BioPrint panel)
Description: as §1

[22] = target: T15, 5-HT1B (Rattus norvegicus, UniProt P28564); experiment: BioPrint panel: 5-HT1B (antagonist); type: binding; conditions: 1 micromolar, read-out: percentage of inhibition of activity
T15 construct: purchased Eurofins Pharma Discovery Services (KinaseProfiler; Cerep BioPrint panel)
Description: as §1

[23] = target: T16, 5-HT2C (Homo sapiens, UniProt P28335); experiment: BioPrint panel: 5-HT2C (h) (agonist); type: binding; conditions: 1 micromolar, read-out: percentage of inhibition of activity
T16 construct: purchased Eurofins Pharma Discovery Services (KinaseProfiler; Cerep BioPrint panel)
Description: as §1

[24] = target: T17, 5-HT7 (Homo sapiens, UniProt P34969); experiment: BioPrint panel: 5-HT7 (h) (agonist); type: binding; conditions: 1 micromolar, read-out: percentage of inhibition of activity
T17 construct: purchased Eurofins Pharma Discovery Services (KinaseProfiler; Cerep BioPrint panel)
Description: as §1

[25] = target: T18, GR (Homo sapiens, UniProt P04150); experiment: BioPrint panel: GR (h) (agonist); type: binding; conditions: 1 micromolar, read-out: percentage of inhibition of activity
T18 construct: purchased Eurofins Pharma Discovery Services (KinaseProfiler; Cerep BioPrint panel)
Description: as §1

[26] = target: T19, VPAC1 (VIP1) (Homo sapiens, UniProt P32241); experiment: BioPrint panel: VPAC1 (VIP1) (h) (agonist); type: binding; conditions: 1 micromolar, read-out: percentage of inhibition of activity
T19 construct: purchased Eurofins Pharma Discovery Services (KinaseProfiler; Cerep BioPrint panel)
Description: as §1

[27] = tested on: Na+ channel (site 2); experiment: BioPrint panel: Na+ channel (site 2) (antagonist); type: binding; conditions: 1 micromolar
Description: as §1

[28] = tested on: Cl- channel (GABA-gated); experiment: BioPrint panel: Cl- channel (GABA-gated) (antagonist); type: binding; conditions: 1 micromolar
Description: as §1

[29] = target: T20, COX2 (Homo sapiens, UniProt P35354); experiment: BioPrint panel: COX2 (h); type: biochemical; conditions: 1 micromolar, read-out: percentage of inhibition of activity
T20 construct: purchased Eurofins Pharma Discovery Services (KinaseProfiler; Cerep BioPrint panel)
Description: as §1

[30] = target: T21, ACE (Homo sapiens, UniProt P12821); experiment: BioPrint panel: ACE (h); type: biochemical; conditions: 1 micromolar
T21 construct: purchased Eurofins Pharma Discovery Services (KinaseProfiler; Cerep BioPrint panel)
Description: as §1

[31] = target: T22, BACE-1 (beta -secretase) (Homo sapiens, UniProt P56817); experiment: BioPrint panel: BACE-1 (h) (beta -secretase); type: biochemical; conditions: 1 micromolar, read-out: percentage of inhibition of activity
T22 construct: purchased Eurofins Pharma Discovery Services (KinaseProfiler; Cerep BioPrint panel)
Description: as §1

[32] = target: T23, MMP-1 (Homo sapiens, UniProt P03956); experiment: BioPrint panel: MMP-1 (h); type: biochemical; conditions: 1 micromolar
T23 construct: purchased Eurofins Pharma Discovery Services (KinaseProfiler; Cerep BioPrint panel)
Description: as §1

[33] = target: T24, Lyn A kinase (Homo sapiens, UniProt P07948); experiment: BioPrint panel: Lyn A kinase (h); type: biochemical; conditions: 1 micromolar, read-out: percentage of inhibition of activity
T24 construct: purchased Eurofins Pharma Discovery Services (KinaseProfiler; Cerep BioPrint panel)
Description: as §1

T2 sequence (P35348 whole entry): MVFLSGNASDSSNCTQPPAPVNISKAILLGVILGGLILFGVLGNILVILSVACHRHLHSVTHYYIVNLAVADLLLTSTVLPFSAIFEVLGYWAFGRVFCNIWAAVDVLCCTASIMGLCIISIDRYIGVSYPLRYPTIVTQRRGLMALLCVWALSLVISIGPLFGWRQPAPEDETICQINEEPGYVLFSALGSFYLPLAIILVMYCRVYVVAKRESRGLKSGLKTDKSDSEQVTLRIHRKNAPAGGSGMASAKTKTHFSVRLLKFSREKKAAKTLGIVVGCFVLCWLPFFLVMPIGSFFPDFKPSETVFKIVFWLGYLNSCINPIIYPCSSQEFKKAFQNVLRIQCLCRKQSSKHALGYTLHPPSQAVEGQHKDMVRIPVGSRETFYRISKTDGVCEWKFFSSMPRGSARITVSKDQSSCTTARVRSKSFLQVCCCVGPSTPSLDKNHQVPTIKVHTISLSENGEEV
T12 sequence (P20309 whole entry): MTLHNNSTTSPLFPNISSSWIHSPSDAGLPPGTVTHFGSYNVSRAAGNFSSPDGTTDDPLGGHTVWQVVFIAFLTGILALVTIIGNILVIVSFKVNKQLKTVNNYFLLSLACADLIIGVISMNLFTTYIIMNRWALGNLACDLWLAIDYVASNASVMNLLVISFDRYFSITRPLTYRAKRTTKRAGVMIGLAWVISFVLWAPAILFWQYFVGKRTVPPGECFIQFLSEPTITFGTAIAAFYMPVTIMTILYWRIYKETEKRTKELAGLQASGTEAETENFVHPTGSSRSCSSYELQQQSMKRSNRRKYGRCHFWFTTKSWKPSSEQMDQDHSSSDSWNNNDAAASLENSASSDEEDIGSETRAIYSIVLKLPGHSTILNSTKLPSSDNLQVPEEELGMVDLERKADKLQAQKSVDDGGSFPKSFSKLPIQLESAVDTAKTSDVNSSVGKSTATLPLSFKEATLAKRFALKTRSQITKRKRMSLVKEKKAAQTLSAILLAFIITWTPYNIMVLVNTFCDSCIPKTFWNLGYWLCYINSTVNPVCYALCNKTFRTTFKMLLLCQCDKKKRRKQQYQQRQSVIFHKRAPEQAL
T9 sequence (P48039 whole entry): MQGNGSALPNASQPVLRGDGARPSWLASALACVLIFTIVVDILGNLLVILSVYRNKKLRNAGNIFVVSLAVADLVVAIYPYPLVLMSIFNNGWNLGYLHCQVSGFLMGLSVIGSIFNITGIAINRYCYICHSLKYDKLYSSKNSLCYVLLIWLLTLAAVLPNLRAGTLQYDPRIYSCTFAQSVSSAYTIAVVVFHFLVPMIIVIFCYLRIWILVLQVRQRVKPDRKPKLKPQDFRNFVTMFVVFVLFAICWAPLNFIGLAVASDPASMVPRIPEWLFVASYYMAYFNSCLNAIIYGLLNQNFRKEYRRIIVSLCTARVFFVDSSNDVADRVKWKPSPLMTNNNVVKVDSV
T18 sequence (P04150 whole entry): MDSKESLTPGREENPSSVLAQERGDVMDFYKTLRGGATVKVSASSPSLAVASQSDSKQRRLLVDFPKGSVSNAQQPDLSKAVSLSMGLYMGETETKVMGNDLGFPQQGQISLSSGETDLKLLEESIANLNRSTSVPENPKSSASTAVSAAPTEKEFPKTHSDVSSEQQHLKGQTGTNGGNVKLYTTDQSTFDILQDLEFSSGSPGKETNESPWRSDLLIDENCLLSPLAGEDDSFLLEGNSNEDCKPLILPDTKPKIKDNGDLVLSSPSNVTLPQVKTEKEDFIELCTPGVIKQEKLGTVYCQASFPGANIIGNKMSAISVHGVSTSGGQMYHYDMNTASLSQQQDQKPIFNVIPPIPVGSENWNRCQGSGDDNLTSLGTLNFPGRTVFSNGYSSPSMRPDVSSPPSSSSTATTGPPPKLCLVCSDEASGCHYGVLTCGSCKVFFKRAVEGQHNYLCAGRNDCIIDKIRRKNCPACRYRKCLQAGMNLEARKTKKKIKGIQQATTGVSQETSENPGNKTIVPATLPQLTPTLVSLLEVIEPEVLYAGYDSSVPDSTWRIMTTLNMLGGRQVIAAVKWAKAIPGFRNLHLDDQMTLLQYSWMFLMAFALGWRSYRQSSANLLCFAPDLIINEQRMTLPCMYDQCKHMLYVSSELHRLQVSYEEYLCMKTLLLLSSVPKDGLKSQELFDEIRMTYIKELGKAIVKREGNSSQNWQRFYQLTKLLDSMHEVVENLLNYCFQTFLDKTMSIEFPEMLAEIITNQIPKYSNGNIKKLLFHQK
T11 sequence (P08172 whole entry): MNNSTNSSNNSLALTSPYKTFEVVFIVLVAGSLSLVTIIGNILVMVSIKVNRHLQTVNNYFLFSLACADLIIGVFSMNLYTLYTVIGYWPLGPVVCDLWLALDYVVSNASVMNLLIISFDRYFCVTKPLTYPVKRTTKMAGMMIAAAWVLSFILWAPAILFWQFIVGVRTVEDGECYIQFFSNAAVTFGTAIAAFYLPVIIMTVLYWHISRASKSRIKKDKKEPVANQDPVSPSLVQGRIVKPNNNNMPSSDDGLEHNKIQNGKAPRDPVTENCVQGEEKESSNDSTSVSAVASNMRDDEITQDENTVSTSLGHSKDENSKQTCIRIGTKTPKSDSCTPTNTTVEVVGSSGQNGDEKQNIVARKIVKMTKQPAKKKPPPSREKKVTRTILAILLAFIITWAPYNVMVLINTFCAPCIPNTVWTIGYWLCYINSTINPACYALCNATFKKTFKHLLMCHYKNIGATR
T6 sequence (P41597 whole entry): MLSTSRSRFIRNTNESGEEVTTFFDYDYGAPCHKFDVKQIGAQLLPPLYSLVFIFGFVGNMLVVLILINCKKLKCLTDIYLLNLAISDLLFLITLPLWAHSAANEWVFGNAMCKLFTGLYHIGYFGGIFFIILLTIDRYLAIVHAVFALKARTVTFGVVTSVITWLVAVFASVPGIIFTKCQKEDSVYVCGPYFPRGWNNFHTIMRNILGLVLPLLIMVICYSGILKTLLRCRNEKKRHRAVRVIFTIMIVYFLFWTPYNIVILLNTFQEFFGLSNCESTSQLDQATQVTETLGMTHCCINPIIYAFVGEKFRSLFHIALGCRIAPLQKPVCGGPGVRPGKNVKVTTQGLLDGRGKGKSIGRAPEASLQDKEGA
T24 sequence (P07948 whole entry): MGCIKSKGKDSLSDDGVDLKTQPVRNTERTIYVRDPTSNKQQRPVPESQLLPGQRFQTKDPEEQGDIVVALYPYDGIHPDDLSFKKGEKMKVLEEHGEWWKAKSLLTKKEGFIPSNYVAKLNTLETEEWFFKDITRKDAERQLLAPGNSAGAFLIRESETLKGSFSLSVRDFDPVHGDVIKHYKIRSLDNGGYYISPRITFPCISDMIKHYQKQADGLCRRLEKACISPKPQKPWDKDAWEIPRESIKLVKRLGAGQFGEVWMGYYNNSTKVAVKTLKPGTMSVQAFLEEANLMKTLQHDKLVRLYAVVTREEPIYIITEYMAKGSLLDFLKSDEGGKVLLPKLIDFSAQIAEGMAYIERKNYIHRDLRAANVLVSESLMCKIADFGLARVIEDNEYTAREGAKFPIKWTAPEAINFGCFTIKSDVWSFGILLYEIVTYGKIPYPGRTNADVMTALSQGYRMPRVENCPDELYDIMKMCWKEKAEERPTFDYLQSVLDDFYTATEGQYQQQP
T17 sequence (P34969 whole entry): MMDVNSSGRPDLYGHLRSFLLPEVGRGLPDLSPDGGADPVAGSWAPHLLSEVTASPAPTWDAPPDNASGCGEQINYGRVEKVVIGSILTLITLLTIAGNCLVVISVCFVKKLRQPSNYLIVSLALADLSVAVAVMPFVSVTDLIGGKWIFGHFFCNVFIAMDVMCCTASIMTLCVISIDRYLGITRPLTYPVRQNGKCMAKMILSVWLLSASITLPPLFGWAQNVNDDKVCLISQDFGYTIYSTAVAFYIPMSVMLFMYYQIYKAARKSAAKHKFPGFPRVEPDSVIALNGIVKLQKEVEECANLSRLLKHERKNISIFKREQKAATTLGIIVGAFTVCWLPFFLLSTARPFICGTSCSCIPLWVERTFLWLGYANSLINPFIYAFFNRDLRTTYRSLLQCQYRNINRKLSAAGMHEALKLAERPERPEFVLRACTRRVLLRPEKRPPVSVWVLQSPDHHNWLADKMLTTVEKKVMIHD
T14 sequence (P08908 whole entry): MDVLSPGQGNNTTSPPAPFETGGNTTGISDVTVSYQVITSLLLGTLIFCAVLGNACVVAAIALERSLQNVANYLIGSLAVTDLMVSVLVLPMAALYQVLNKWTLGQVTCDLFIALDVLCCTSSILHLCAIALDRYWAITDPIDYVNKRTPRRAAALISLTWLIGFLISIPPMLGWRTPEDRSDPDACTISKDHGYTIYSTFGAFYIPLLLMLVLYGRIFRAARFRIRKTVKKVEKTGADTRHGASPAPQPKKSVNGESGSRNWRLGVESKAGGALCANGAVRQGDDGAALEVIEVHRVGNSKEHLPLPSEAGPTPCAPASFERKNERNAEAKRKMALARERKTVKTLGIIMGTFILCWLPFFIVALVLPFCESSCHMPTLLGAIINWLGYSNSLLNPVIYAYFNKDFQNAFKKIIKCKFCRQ
T1 sequence (P0DMS8 whole entry): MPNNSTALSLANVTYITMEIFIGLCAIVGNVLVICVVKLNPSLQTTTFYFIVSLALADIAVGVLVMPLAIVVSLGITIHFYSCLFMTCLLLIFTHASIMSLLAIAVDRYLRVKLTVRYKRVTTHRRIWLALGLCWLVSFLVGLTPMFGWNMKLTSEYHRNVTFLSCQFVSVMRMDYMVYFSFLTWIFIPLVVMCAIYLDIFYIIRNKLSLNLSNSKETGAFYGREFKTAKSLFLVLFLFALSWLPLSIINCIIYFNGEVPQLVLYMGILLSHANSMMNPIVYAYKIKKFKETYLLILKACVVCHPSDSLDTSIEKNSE

In the case of `CC(C)(C)N1CCC(c2cc(-c3ccc(F)cc3Cl)c3cc[n+]([O-])c(-c4c(Cl)cccc4Cl)c3n2)CC1` [compound 2], the “% Inhibition of mRNA at [4 μM] ± SD” value [1] is reported as 79.69 ± 4.76%, the “% Inhibition of mRNA” value [1] is reported as 83.056% and 76.316% and the “inhibition in the rest of the panel” value [2] is reported as “less than 50%”.

`Cc1ccc(C(=O)NCC2CC2)cc1-c1ccc2c(c1)NC(=O)C21CCCC1` [compound 3] was tested, and the “% Inhibition of mRNA at [4 μM] ± SD” value [1] was 80.07 ± 0.48%, the “% Inhibition of mRNA” value [1] was 80.414% and 79.735% and the “inhibition in the rest of the panel” value [2] was “less than 50%”.

In the case of `Cn1cc(-c2cccc(-c3nc(C(=O)NC4C5CC6CC4CC(O)(C6)C5)c(N)nc3N)c2)cn1` (centres unmarked) [compound 4], the “% Inhibition of mRNA at [4 μM] ± SD” value [1] is reported as 90.44 ± 0.24%, the “% Inhibition of mRNA” value [1] is reported as 90.608% and 90.263% and the “Inhibition of 129 additional activities” value [3] is reported as “less than 50%”. For the same molecule, the inhibition at 1 µM [4] was 3.5%, the inhibition at 1 µM [5] was 2.8% and the inhibition at 1 µM [6] was 2.4%. The “percentage of inhibition of activity” value [7] was -11.1%, the inhibition at 1 µM [8] was -1.5% and the inhibition at 1 µM [9] was -16%. The “percentage of inhibition of activity” value [10] was 4.1%, the “percentage of inhibition of activity” value [11] was -6.8% and the inhibition at 1 µM [12] was 2.6%. It also gave an inhibition at 1 µM [13] of 0%, an inhibition at 1 µM [14] of -2.3% and an inhibition at 1 µM [15] of 4.2%. It also gave an inhibition at 1 µM [16] of 6.4%, an inhibition at 1 µM [17] of 19.5% and an inhibition at 1 µM [18] of -0.3%. The inhibition at 1 µM [19] was 11.6%, the “percentage of inhibition of activity” value [20] was -2.1% and the inhibition at 1 µM [21] was -1.1%. The inhibition at 1 µM [22] was -1.1%, the inhibition at 1 µM [23] was -17.7% and the inhibition at 1 µM [24] was -4.3%. For the same molecule, the inhibition at 1 µM [25] was 0.9%, the inhibition at 1 µM [26] was -4.6% and the “percentage of inhibition of activity” value [27] was 29.7%. For the same molecule, the “percentage of inhibition of activity” value [28] was 0.5%, the inhibition at 1 µM [29] was -12.1% and the “percentage of inhibition of activity” value [30] was “INTER”. The inhibition at 1 µM [31] was -7.3%, the “percentage of inhibition of activity” value [32] was “INTER” and the inhibition at 1 µM [33] was 0.1%.

In the case of `CS(=O)(=O)N1CCN(c2ccc(Nc3ncc(C(N)=O)c(NC4CC4)n3)cc2)CC1` [compound 5], the “% Inhibition of mRNA at [4 μM] ± SD” value [1] is reported as 99.76 ± 0.12% and the “% Inhibition of mRNA” value [1] is reported as 99.853% and 99.672%.
